Test system: HT-29 cells (colon cancer cells)
Experiment: In vitro assay for protection of HT-29 cells from necroptosis (TNFα/Smac mimetic/Z-VAD-FMK, CCK-8)
Format: cell-based
Conditions: Homo sapiens, Protective Activity Against Necroptosis, TNFα/Smac mimetic/Z-VAD-FMK induced, 24 h
Description: Z′=1−3(SDmin+SDmax)/(AVEmax−AVEmin) • wherein: • Min is the positive control Data, and Max is the negative control DMSO Data. • SD is the standard deviation, and AVE is the average. In Vitro Assay for Protection of HT-29 Cells from Necroptosis:
1) Experimental Materials
DMEM medium was purchased from Gibco; penicillin-streptomycin was purchased from Hyclone; TNFα was purchased from Peprotech; Smac mimetic and Z-VAD-FMK were purchased from Selleck; and CCK-8 was purchased from Medchem Express.
HT-29 cells (colon cancer cells) were cultured in DMEM+10% FBS+penicillin/streptomycin. For the experiment, HT-29 cells in the logarithmic phase were collected and seeded into 96-well plates at a specific density (typically 8×10^3 cells/well for adherent cells). The cells were cultured overnight in an incubator at 37° C. with 5% CO2. On the following day, the test compound was diluted with culture medium to the corresponding concentrations and added into the 96-well plate, with 3 replicate wells for each sample. A solvent control group and a blank control group containing only culture medium were set simultaneously. The spiked cells were induced with a combination of TNFα/Smac mimetic/Z-VAD-FMK for 24 h. Subsequently, 10 μL of CCK8 solution was added to each well, and the cells were incubated in an incubator for 1-3 h. Absorbance was measured at […] using a microplate reader, and the cell necrosis protection rate of the drug was calculated using the following formula:
Cell necrosis protection rate=[(X−C0)/(C−C0)]×100% • where C, C0, and X represent the average absorbance values of the solvent control group, the blank control group, and the drug treatment group, respectively. Finally, a cell viability curve was fitted using Graphpad Prism 5.0 software, and the EC50 value of the test compound for inhibiting necroptosis was calculated.

Compound | EC50
Cn1cc(C(=O)N2CCC[C@H]2c2ccc(F)cc2)c2cc(-c3ccn4nc(NC(=O)N5CCOCC5)nc4c3)ccc21 [Compound 153] | < 1 nM
Cn1cc(C(=O)N[C@H](c2ccc(F)cc2)C(F)F)c2cc(-c3ccn4nc(NC(=O)C5CC5)nc4c3)ccc21 [Compound 161] | < 1 nM
Cn1cc(C(=O)Nc2nc3cc(-c4ccc5c(c4)c(C4=NC(c6ccc(F)cc6)CO4)cn5C)ccn3n2)cn1 (centres unmarked) [Compound 213] | 10 to 100 nM
CCn1cc(C(=O)N[C@@H](C)c2ccc(F)cc2)c2cc(-c3ccn4nc(NC(=O)CN5CCOCC5)nc4c3)ccc21 [Compound 8] | < 1 nM
Cn1cc(C(=O)N2CCC[C@H]2c2ccc(F)cc2)c2cc(-c3ccn4nc(NC(=O)C5CCOC5)nc4c3)ccc21 (some centres unmarked) [Compound 186] | < 1 nM
C[C@H](NC(=O)c1cn(C)c2ccc(-c3ccn4nc(NC(=O)CN5CC[C@@H](F)C5)nc4c3)cc12)c1ccc(F)cc1 [Compound 20] | < 1 nM
C[C@H](NC(=O)c1cn(C)c2ccc(-c3ccn4nc(NC(=O)[C@@H]5CCC(=O)N5)nc4c3)cc12)c1ccc(F)cc1 [Compound 14] | < 1 nM
C[C@H](NC(=O)c1cn(C)c2ccc(-c3ccn4nc(NC(=O)c5cnn(C)c5)nc4c3)cc12)C(C)(C)C [Compound 91] | 1000 to 10000 nM
CC[C@H](NC(=O)c1cn(C)c2ccc(-c3ccn4nc(NC(=O)CN5CCOCC5)nc4c3)cc12)c1ccc(F)cc1 [Compound 197] | < 1 nM
Cn1cc(C(=O)N2CCC[C@H]2c2ccc(F)cc2)c2cc(-c3ccn4nc(NC(=O)C5CCCO5)nc4c3)ccc21 (some centres unmarked) [Compound 154] | < 1 nM
Cn1cc(C(=O)N[C@@H](CF)c2ccc(F)cc2)c2cc(-c3ccn4nc(NC(=O)C#N)nc4c3)ccc21 [Compound 102] | < 1 nM
C[C@H](NC(=O)c1cn(C)c2ccc(-c3ccn4nc(NC(=O)C5CCOC5)nc4c3)cc12)c1ccc(F)cc1 (some centres unmarked) [Compound 106] | < 1 nM
Cn1cc(C(=O)N2CC(F)CC2c2ccc(F)cc2)c2cc(-c3ccn4nc(NC(=O)C5CC5)nc4c3)ccc21 (centres unmarked) [Compound 156] | < 1 nM
C[C@H](NC(=O)c1cn(C)c2ccc(-c3ccn4nc(NC(=O)Cn5cncn5)nc4c3)cc12)c1ccc(F)cc1 [Compound 57] | 10 to 100 nM
CC(C)NCC(=O)Nc1nc2cc(-c3ccc4c(c3)c(C(=O)N[C@@H](C)c3ccc(F)cc3)cn4C)ccn2n1 [Compound 67] | < 1 nM
Cn1cc(C(=O)N2CC(F)(F)CC2c2ccc(F)cc2)c2cc(-c3ccn4nc(NC(=O)C5CCOC5)nc4c3)ccc21 (centres unmarked) [Compound 159] | < 1 nM
Cn1cc(C(=O)Nc2nc3cc(-c4ccc5c(c4)c(C(=O)N4N=CCC4c4ccc(F)cc4)cn5C)ccn3n2)cn1 (centres unmarked) [Compound 171] | 1 to 10 nM
C[C@H](NC(=O)c1cn(C)c2ccc(-c3ccn4nc(NC(=O)CNCCOCCO)nc4c3)cc12)c1ccc(F)cc1 [Compound 65] | < 1 nM
Cn1cc(C(=O)Nc2nc3cc(-c4ccc5c(c4)c(C(=O)N4CCC[C@H]4c4ccc(F)cc4)cn5C)ccn3n2)cn1 [Compound 207] | < 1 nM

Compound | EC50
Cn1cc(C(=O)N[C@H](c2ccc(F)cc2)C(F)F)c2cc(-c3ccn4nc(NC(=O)CN5CCCCC5)nc4c3)ccc21 [Compound 163] | < 1 nM
C[C@H](NC(=O)c1cn(C)c2ccc(-c3ccn4nc(NC(=O)CN5CC6CCC(C5)O6)nc4c3)cc12)c1ccc(F)cc1 [Compound 71] | < 1 nM
C[C@H](NC(=O)c1cn(C)c2ccc(-c3ccn4nc(NC(=O)CN5CC[C@H](F)C5)nc4c3)cc12)c1ccc(F)cc1 [Compound 21] | < 1 nM
Cn1cc(C(=O)N[C@@H]2C[C@H]2c2ccc(F)c(F)c2)c2cc(-c3ccn4nc(NC(=O)[C@H]5CCCO5)nc4c3)ccc21 [Compound 184] | 100 to 1000 nM
C[C@H](NC(=O)c1cn(C)c2ccc(-c3ccn4nc(NC(=O)CN5CC[C@@H](CO)C5)nc4c3)cc12)c1ccc(F)cc1 [Compound 62] | < 1 nM
COC1CCN(CC(=O)Nc2nc3cc(-c4ccc5c(c4)c(C(=O)N[C@@H](C)c4ccc(F)cc4)cn5C)ccn3n2)CC1 [Compound 24] | < 1 nM
C[C@H](NC(=O)c1cn(C)c2ccc(-c3ccn4nc(NC(=O)CN5C6CCC5COC6)nc4c3)cc12)c1ccc(F)cc1 [Compound 73] | < 1 nM
CN(C)CC(=O)Nc1nc2cc(-c3ccc4c(c3)c(C(=O)N[C@H]3CCc5ccc(F)cc53)cn4C)ccn2n1 [Compound 123] | 1 to 10 nM
Cn1cc(C(=O)N2N=CCC2c2ccc(F)cc2)c2cc(-c3ccn4nc(NC(=O)N5CCOCC5)nc4c3)ccc21 (centres unmarked) [Compound 172] | 1 to 10 nM
CO[C@@H](C)C(=O)Nc1nc2cc(-c3ccc4c(c3)c(C(=O)N[C@H](c3ccc(F)cc3)C(F)F)cn4C)ccn2n1 [Compound 165] | < 1 nM
C[C@H](NC(=O)c1cn(C)c2ccc(-c3ccn4nc(NC(=O)[C@H]5CCCO5)nc4c3)cc12)c1cccc(F)c1 [Compound 119] | < 1 nM
C[C@H](NC(=O)c1cn(C)c2ccc(-c3ccn4nc(NC(=O)CN5CCC(O)(O)CC5)nc4c3)cc12)c1ccc(F)cc1 [Compound 5] | < 1 nM
C[C@H](NC(=O)c1cn(C)c2ccc(-c3ccn4nc(NC(=O)c5cnn(C)c5)nc4c3)cc12)c1cccc(F)c1 [Compound 120] | < 1 nM
C[C@H](NC(=O)c1cn(C)c2ccc(-c3ccn4nc(NC(=O)CN5CCOC[C@H]5C)nc4c3)cc12)c1ccc(F)cc1 [Compound 72] | < 1 nM
CC(c1ccc(F)cc1)n1cnc(-c2cn(C)c3ccc(-c4ccn5nc(NC(=O)C6CC6F)nc5c4)cc23)n1 (centres unmarked) [Compound 209] | 100 to 1000 nM
COCCn1cc(C(=O)N[C@@H](CF)c2ccc(F)cc2)c2cc(-c3ccn4nc(NC(=O)CC#N)nc4c3)ccc21 [Compound 215] | 10 to 100 nM
Cn1cc(C(=O)Nc2nc3cc(-c4ccc5c(c4)c(C(=O)N4CCOC[C@@H]4c4ccc(F)cc4)cn5C)ccn3n2)cn1 [Compound 149] | < 1 nM
CCn1cc(C(=O)N[C@@H](CF)c2ccc(F)cc2)c2cc(-c3ccn4nc(NC(=O)N5CCOCC5)nc4c3)ccc21 [Compound 200] | < 1 nM
CC(=O)Nc1nc2cc(-c3ccc4c(c3)c(C(=O)NC3CCc5cc(F)ccc53)cn4C)ccn2n1 (stereo in doubt) [Compound 127] | 1000 to 10000 nM

Compound | EC50
C[C@H](NC(=O)c1cn(C)c2ccc(-c3ccn4nc(NC(=O)CN5CCOC[C@@H]5C)nc4c3)cc12)c1ccc(F)cc1 [Compound 60] | < 1 nM
C[C@H](NC(=O)c1cn(C)c2ccc(-c3ccn4nc(NC(=O)CN5CC(O)CC5=O)nc4c3)cc12)c1ccc(F)cc1 (stereo in doubt) [Compound 3] | 10 to 100 nM
C[C@H](NC(=O)c1cn(C)c2ccc(-c3ccn4nc(NC(=O)CN5C[C@H]6C[C@@H]5CO6)nc4c3)cc12)c1ccc(F)cc1 [Compound 39] | < 1 nM
C[C@@H]1CN(CC(=O)Nc2nc3cc(-c4ccc5c(c4)c(C(=O)N[C@@H](C)c4ccc(F)cc4)cn5C)ccn3n2)C[C@H](C)O1 [Compound 46] | < 1 nM
C[C@H](NC(=O)c1cn(C)c2ccc(-c3ccn4nc(NC(=O)CN5CCOCC5)nc4c3)cc12)c1ccco1 [Compound 88] | 1 to 10 nM
C[C@H](NC(=O)c1cn(C)c2ccc(-c3ccn4nc(NC(=O)[C@H]5CCCO5)nc4c3)cc12)c1ccc(F)cc1 [Compound 117] | < 1 nM
C[C@H](NC(=O)c1cn(C)c2ccc(-c3ccn4nc(NC(=O)c5ccnc(F)c5)nc4c3)cc12)c1ccc(F)cc1 [Compound 115] | < 1 nM
CCOC(=O)Nc1nc2cc(-c3ccc4c(c3)c(C(=O)N[C@@H](C)c3ccc(F)cc3)cn4C)ccn2n1 [Compound 17] | < 1 nM
CC(C(=O)Nc1cn(C)c2ccc(-c3ccn4nc(NC(=O)C5CC5)nc4c3)cc12)c1ccc(F)cc1 (centres unmarked) [Compound 177] | 10 to 100 nM
C[C@H](NC(=O)c1cn(C)c2ccc(-c3ccn4nc(NC(=O)C(N)=O)nc4c3)cc12)c1ccc(F)cc1 [Compound 11] | 1 to 10 nM
CN(C)CC(=O)Nc1nc2cc(-c3ccc4c(c3)c(C(=O)N[C@H](c3ccc(F)cc3)C(F)F)cn4C)ccn2n1 [Compound 167] | < 1 nM
C[C@H](NC(=O)c1cn(C)c2ccc(-c3ccn4nc(NC(=O)CN(C)C)nc4c3)cc12)c1ccc(F)cc1 [Compound 40] | < 1 nM
Cn1cc(C(=O)N2N=CCC2c2ccc(F)cc2)c2cc(-c3ccn4nc(NC(=O)C5CC5)nc4c3)ccc21 (centres unmarked) [Compound 170] | < 1 nM
C[C@H](NC(=O)c1cn(C)c2ccc(-c3ccn4nc(NC(=O)Cn5cccn5)nc4c3)cc12)c1ccc(F)cc1 [Compound 58] | < 1 nM
C[C@H](NC(=O)c1nn(C)c2ccc(-c3ccn4nc(NC(=O)N5CCOCC5)nc4c3)cc12)c1ccc(F)cc1 [Compound 195] | < 1 nM
C[C@H](NC(=O)c1cn(C)c2ccc(-c3ccn4nc(NC(=O)CN5CC6CC5CO6)nc4c3)cc12)c1ccc(Cl)cc1 (some centres unmarked) [Compound 79] | < 1 nM
C[C@H](NC(=O)c1cn(C)c2ccc(-c3ccn4nc(NC(=O)CN5CCSCC5)nc4c3)cc12)c1ccc(Cl)cc1 [Compound 87] | < 1 nM
C[C@H](NC(=O)c1cn(C)c2ccc(-c3ccn4nc(NC(=O)CN5CCN(C(=O)OC(C)(C)C)C[C@H]5C)nc4c3)cc12)c1ccc(F)cc1 [Compound 64] | < 1 nM

Reference: patent publication US20260327224A1, “SUBSTITUTED PYRIDOTRIAZOLE COMPOUND, AND PREPARATION METHOD THEREFOR AND USE THEREOF” (ORIGIANT PHARMACEUTICAL CO., LTD., priority 2023, published 2026)
